The source of these data is US11679159B2, “Compositions for transfecting resistant cell types” (Precision Nanosystems ULC, priority 2018, dated 2023).

This assay concerns NPC. Description: GFP levels in NPC measured by flow cytometry, KC2 and DLin-MC3-DMA substituted as ionizable lipid. The conditions noted are these: 48 H, ionizable lipid in the Lipid Mix K, over the control Lipid Mix A (FIG. 11). The class given is cell-based, human. An excerpt:
Two commonly used ionizable lipids, KC2 and DLin-MC3-DMA, were substituted for the ionizable lipid component for Lipid Mixes A and K. NPC were transfected as specified above, and the results at 48 H for GFP Median Fluorescent Intensity via flow cytometry are shown in FIG. 11. Both KC2 and DLin-MC3-DMA (MC3 in the graph) were effective in the Lipid Mix K to enhance GFP expression over the control Lipid Mix A. PNI-IL-1 is 1,17-bis(2-octylcyclopropyl)heptadecan-9-yl 4-(dimethylamino)butanoate HCl).
(In general: In flow cytometry, cells or beads pass a laser one at a time.)

For the molecule `CCCCC/C=C\C/C=C\CCCCCCCCC1(CCCCCCCC/C=C\C/C=C\CCCCC)OCC(CCN(C)C)O1` (centres unmarked) [KC2, 2,2-dilinoleyl-4-(2-dimethylaminoethyl)-[1,3]-dioxolane], the “GFP Median Fluorescent Intensity via flow cytometry” value was “effective”.
With `CCCCCC=CCC=CCCCCCCCCC(CCCCCCCCC=CCC=CCCCCC)OC(=O)CCCN(C)C` (centres unmarked) [DLin-MC3-DMA, heptatriaconta-6,9,28,31-tetraen-19-yl 4-(dimethylamino)butanoate], the “GFP Median Fluorescent Intensity via flow cytometry” value is recorded as “effective”.
